Molecular target: T1, heat-resistant β-galactosyltransferase produced by Saccharopolyspora rectivirgula SAM 1400 (Saccharopolyspora rectivirgula, UniProt Q9ZBD1)
T1 construct: about 140 kDa by gel filtration
Assay: Inhibitors: residual activity of the enzyme in the presence of compounds (Table 3)
Assay type: biochemical
Details: enzyme in presence of the compound; compound concentration not given

T1 sequence (Q9ZBD1 entry or part of it, change not shown): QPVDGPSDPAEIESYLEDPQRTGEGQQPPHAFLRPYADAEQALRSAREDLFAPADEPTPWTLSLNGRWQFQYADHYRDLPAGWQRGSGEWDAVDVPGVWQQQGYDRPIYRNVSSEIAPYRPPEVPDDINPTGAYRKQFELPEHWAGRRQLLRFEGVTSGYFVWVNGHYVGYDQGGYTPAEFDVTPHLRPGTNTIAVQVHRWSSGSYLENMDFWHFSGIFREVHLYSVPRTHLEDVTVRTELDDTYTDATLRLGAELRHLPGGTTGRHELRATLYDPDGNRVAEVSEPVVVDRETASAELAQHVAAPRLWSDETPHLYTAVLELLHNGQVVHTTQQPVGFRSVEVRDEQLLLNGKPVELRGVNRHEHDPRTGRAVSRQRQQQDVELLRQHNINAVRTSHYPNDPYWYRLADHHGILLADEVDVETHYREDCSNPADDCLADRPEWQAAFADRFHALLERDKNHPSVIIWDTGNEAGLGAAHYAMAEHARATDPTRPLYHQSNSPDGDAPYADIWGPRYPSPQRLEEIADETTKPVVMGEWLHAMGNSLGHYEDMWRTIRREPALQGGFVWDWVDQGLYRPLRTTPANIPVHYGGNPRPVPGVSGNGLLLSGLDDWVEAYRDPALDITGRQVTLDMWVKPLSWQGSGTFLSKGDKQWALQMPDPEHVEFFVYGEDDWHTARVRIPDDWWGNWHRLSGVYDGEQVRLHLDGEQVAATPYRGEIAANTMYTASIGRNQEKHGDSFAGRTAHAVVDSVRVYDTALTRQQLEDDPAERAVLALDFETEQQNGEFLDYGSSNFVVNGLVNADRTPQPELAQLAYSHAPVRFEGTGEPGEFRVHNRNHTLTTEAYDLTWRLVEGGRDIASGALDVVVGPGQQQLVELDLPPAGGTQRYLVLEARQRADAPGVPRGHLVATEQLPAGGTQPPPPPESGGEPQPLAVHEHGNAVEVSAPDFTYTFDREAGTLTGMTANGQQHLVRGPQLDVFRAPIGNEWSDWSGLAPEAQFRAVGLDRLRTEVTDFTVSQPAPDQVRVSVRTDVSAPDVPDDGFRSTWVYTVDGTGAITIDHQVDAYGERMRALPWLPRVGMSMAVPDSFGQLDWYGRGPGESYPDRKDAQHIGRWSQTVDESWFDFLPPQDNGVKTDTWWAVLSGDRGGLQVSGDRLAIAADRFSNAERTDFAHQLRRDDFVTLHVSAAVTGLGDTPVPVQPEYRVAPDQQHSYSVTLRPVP

Residual activity: 96%
SMILES: OCCS [2-Mercaptoethanol]

Reference: patent publication US5153128A, “Heat-resistant β-galactosyltransferase, its production process and its use” (Suntory Limited, priority 1990, dated 1992)
